# Legend:
# Entamoeba histolytica = assay: MMV: Primary screening was performed with each compound at a 30 uM final concentration and in triplicate in sealed 96-well polystyrene microtiter plates. Parasite inocula (100 ul) comprising 20000 parasites/ml were added to each well and grown at 37 degrees C in a humidified atmosphere of 5% CO2 for 72 h. Positive controls consisted of metronidazole at 1 mg/ml. The growth of E. histolytica trophozoites in each well was determined microscopically by measuring the diameters of the confluent cells in drug-containing wells relative to those in the nega- tive-control wells.; assay type: functional, organism-based
# Toxoplasma gondii = assay: MMV: A total of 100ul of inoculum was added to each well (parasite/cell ratio, ~10:1; final volume, 200 ul). Six hours after inoculation, nonadherent parasites were removed, and 100 ul of complete DMEM (1% penicillin-streptomycin, 3% FBS) supplemented with inhibitors at different concentrations (2-fold serial dilutions starting from 30 uM) was added to all except the negative-control wells. Positive controls, consisting of pyrimethamine (PYR) and sulfadiazine (SDZ) (20-mg/ml stocks in DMSO), were tested at a 2mg/ml final concentration. Each test was performed in triplicate.; assay type: functional, organism-based; settings: 6 h
SMILES,IC50 (Entamoeba histolytica) [µM],IC50 (Toxoplasma gondii) [µM]
CN1CCN(c2ccc(Nc3c4ccccc4nc4ccccc34)cc2)CC1,> 30,> 30
CN(C)CCCNc1c2ccccc2nc2ccccc12,> 30,25.8
COc1ccc(-c2c(C)nn3c(N)c(C#N)cnc23)cc1OC,> 30,> 30
CSC1=NC(=Nc2c(C)cccc2C)C2(CCC(C(C)(C)C)CC2)N1c1ccc(Cl)cc1 (stereo unspecified),> 30,> 30
Cc1cc(C)cc(Nc2cc(C)nc3nc(C(F)(F)F)nn23)c1,> 30,> 30
O=C(NCC(c1ccsc1)N1CCCCCC1)c1ccc(C(F)(F)F)cc1 (stereo unspecified),> 30,> 30
COc1ccc(-c2cc3c(SCC(=O)Nc4cc(C(F)(F)F)ccc4Cl)nccn3n2)cc1,> 30,> 30
Cc1ccc(-c2cc3c(SCC(=O)Nc4cc(C(F)(F)F)ccc4Cl)nccn3n2)cc1,> 30,> 30
CCN(CC)CCNc1ncnc2c1[nH]c1ccc(Cl)cc12,> 30,> 30
CCOC(=O)c1cnc2ccc(CC)cc2c1O,> 30,> 30
CCN(CC)CCNc1ccnc2cc(Cl)ccc12,> 30,> 30
CCCCCC(=O)N1c2ccccc2N=C2CC(c3ccc(OC)c(OC)c3)CC(O)=C2C1c1ccc(C(F)(F)F)cc1 (stereo unspecified),> 30,> 30
Cc1cc(Nc2ccc3ccccc3c2)n2ncnc2n1,> 30,> 30
Cc1cc(NCCN2CCCCC2)c2ccc3ccccc3c2n1,> 30,> 30
COc1ccc(-n2ccnc2SCC(=O)Nc2cc(C)ccc2C)c(OC)c1,> 30,> 30
CCN1CCN(Cc2ccc(NC(=O)c3cc4ccc5cccnc5c4[nH]3)cc2)CC1,> 30,3.85
COc1ccc(-c2nc(NC(=O)CS(=O)(=O)c3ccc(F)cc3)sc2C)cc1,> 30,> 30
O=C(O)C1Cc2c([nH]c3ccccc23)C(c2ccc(Cl)cc2Cl)N1 (stereo unspecified),> 30,> 30
Cc1ccc(N2C(=O)C3C(C2=O)C2(c4ccccc4)C(=O)C3(c3ccccc3)C(c3ccccc3)=C2c2ccccc2)cc1 (stereo unspecified),> 30,> 30
CCc1c(C)c(=N)c2ccccc2n1C,> 30,> 30
COc1cccc(NC(=O)[C@H](C(C)C)n2c(=O)[nH]c3ccccc3c2=O)c1,> 30,> 30

SMILES,IC50 (Entamoeba histolytica) [µM],IC50 (Toxoplasma gondii) [µM]
CCOC(=O)c1cn(CC)c2cc(N(C)CCc3ccc(OC)c(OC)c3)c(F)cc2c1=O,> 30,> 30
CCC(c1ccccc1)c1nn2c(-c3cccs3)nnc2s1 (stereo unspecified),> 30,> 30
CC(C)(C)c1ccc(O)c(CNC2CCCCC2)c1,> 30,> 30
O=[N+]([O-])c1ccc(C=NNc2nc3ccccc3[nH]2)cc1,> 30,> 30
CC1CN(C(=O)c2sc3ccccc3c2Cl)CC(C)O1 (stereo unspecified),> 30,> 30
CN(C)c1ccc(C=Cc2nc(=O)c3ccccc3o2)cc1,> 30,> 30
COc1ccc(C2=C(c3ccc(OC)cc3)C3(c4ccccc4)C(=O)C2(c2ccccc2)C2C(=O)N(c4ccc(C)cc4)C(=O)C23)cc1 (stereo unspecified),> 30,> 30
CCOC(=O)c1c(NC(=O)c2ccccc2)sc2c(O)c(CN(CC)CC)ccc12,> 30,> 30
CCOC(=O)C1=C(c2ccccc2)N=c2sc(=Cc3cc(C)n(-c4ccc(F)cc4)c3C)c(=O)n2C1c1cccc(OC)c1OC (stereo unspecified),> 30,> 30
CCC1(C)CC(CCNCc2ccccc2O)(c2ccc(C)cc2)CCO1 (stereo unspecified),> 30,> 30
OC(CNC1CCCCC1)Cn1c2ccccc2c2ccccc21 (stereo unspecified),> 30,8.72
Cc1cc(Nc2ccc(C)c(Cl)c2)n2nc(C(F)(F)F)nc2n1,> 30,> 30
CCCN(CCC)CC(O)COc1ccccc1C(=O)Nc1ccccc1 (stereo unspecified),> 30,> 30
Fc1ccc2[nH]c3c(NCCCN4CCOCC4)ncnc3c2c1,> 30,> 30
COc1ccc(C=C2SC(=N)N(c3ccccc3OC)C2=O)cc1,> 30,> 30
COc1ccc(NC(=O)C2c3ccccc3C(=O)N(CC(C)C)C2c2cccs2)cc1Cl (stereo unspecified),> 30,> 30
CCOC(=O)c1c(C)n(-c2ccc(Cl)cc2)c2ccc(OC(=O)C=Cc3ccccc3)cc12,10.7,> 30
C=CC12CCN(CC1)C(C(O)c1ccnc3ccc(OC)cc13)C2 (stereo unspecified),> 30,> 30
Cc1ccc(-c2cc3nc4c(c(O)n3n2)CCCC4)cc1,> 30,8.22
Cc1cccc(Nc2nc(N)c3ccccc3n2)c1,> 30,> 30
CCn1c(CN2CCN(Cc3ccccc3)CC2)nc2cc(NC(=O)c3cccs3)ccc21,> 30,> 30

SMILES,IC50 (Entamoeba histolytica) [µM],IC50 (Toxoplasma gondii) [µM]
COc1ccccc1CNC(=O)CCn1c(=O)[nH]c2ccccc2c1=O,> 30,> 30
Cc1cc(C)c2c(c1)OCN(Cc1ccccc1Cl)C2,> 30,> 30
COc1cc(OC)c(N(C)C(=O)c2cc3c(s2)-c2ccccc2S(=O)(=O)C3)cc1Cl,> 30,> 30
COc1ccccc1NC1=C(N2CCCCC2)C(=O)c2ccccc2C1=O,> 30,4.54
CCCc1cc(O)c2c3c(c(=O)oc2c1)CN(C)CC3,> 30,> 30
Cc1cc(NC(=O)C2c3ccccc3C(=O)N(CC(C)C)C2c2cccs2)no1 (stereo unspecified),> 30,20.9
Oc1ccccc1CNCC12CC3CC(CC(C3)C1)C2,> 30,> 30
CNCCCNc1ccnc2cc(Cl)ccc12,> 30,> 30
COc1ccccc1CNC(=O)CCn1c(=O)[nH]c2ccsc2c1=O,> 30,20.9
COc1ccc(Br)cc1C1Nc2ccc3ccccc3c2C2=C1C(=O)CC(c1ccccc1)C2 (stereo unspecified),> 30,> 30
Cc1cc(C=C2SC(=Nc3ccccc3)N(C3CCCC3)C2=O)c(C)n1-c1ccc(Cl)cc1,> 30,> 30
CC1CCN(Cc2ccc(NC(=O)c3cc4ccc5cccnc5c4[nH]3)cc2)CC1,> 30,> 30
CCc1ccc(Nc2cc(C)c3ccc(O)cc3n2)cc1,> 30,> 30
COc1ccc2c(=O)cc(C(Cl)(Cl)Cl)oc2c1,> 30,6.45
CSc1ccccc1C(=O)Nc1nc(-c2ccccn2)cs1,> 30,> 30
COc1ccc(-c2nc3cc(Cc4ccc5[nH]c(-c6ccc(OC)cc6)nc5c4)ccc3[nH]2)cc1,> 30,> 30
COc1ccc(C(C)=O)cc1N1C(=O)C2C(C1=O)C1(c3ccccc3)C(=O)C2(c2ccccc2)C(c2ccc(C)cc2)=C1c1ccc(C)cc1 (stereo unspecified),> 30,> 30
Cc1ccc(N2C3c4ccccc4N(S(=O)(=O)c4ccc(C)cc4)C2c2ccccc2N3S(=O)(=O)c2ccc(C)cc2)cc1,> 30,> 30
CCCc1c(CC)c(=N)c2ccccc2n1C,> 30,> 30
CCOC(=O)c1cnc2c(C)cc(C)cc2c1Nc1ccc(OC)c(OC)c1,> 30,> 30
c1ccc(Cn2c(N=Nc3c(Nc4ccccc4)ccc4ccccc34)nc3ccccc32)cc1,> 30,13.5
